# Experiments:
# Assay type in all cases: functional
# [1] = tested on: Phytophthora citrophthora; experiment: Antifungal activity against Phytophthora citrophthora assessed as inhibition of mycelium growth
# [2] = tested on: Phytophthora cinnamomi; experiment: Antifungal activity against Phytophthora cinnamomi assessed as inhibition of mycelium growth
# [3] = tested on: Globisporangium rostratum; experiment: Antifungal activity against Pythium rostratum assessed as inhibition of mycelium growth
# [4] = tested on: Phytopythium vexans; experiment: Antifungal activity against Pythium vexans assessed as inhibition of mycelium growth
# [5] = tested on: Botrytis cinerea; experiment: Antifungal activity against Botrytis cinerea assessed as inhibition of mycelium growth
# [6] = tested on: Pyricularia oryzae; experiment: Antifungal activity against Pyricularia oryzae assessed as inhibition of mycelium growth
# [7] = tested on: Fusarium; experiment: Antifungal activity against Fusarium roseum assessed as inhibition of mycelium growth
# [8] = tested on: Alternaria alternata; experiment: Antifungal activity against Alternaria alternata assessed as inhibition of mycelium growth
# [9] = tested on: Rhizoctonia solani; experiment: Antifungal activity against Rhizoctonia solani assessed as inhibition of mycelium growth
# [10] = tested on: Oculimacula yallundae; experiment: Antifungal activity against Pseudocercosporella herpotrichoides assessed as inhibition of mycelium growth
# [11] = tested on: Parastagonospora nodorum; experiment: Antifungal activity against Septoria nodorum assessed as inhibition of mycelium growth
# [12] = tested on: Helminthosporium; experiment: Antifungal activity against Helminthosporium gramineum assessed as inhibition of mycelium growth
# [13] = tested on: Ustilago nuda; experiment: Antifungal activity against Ustilago nuda assessed as inhibition of mycelium growth
Compound,IC90 [1],IC90 [2],IC90 [3],IC90 [4],IC90 [5],IC90 [6],IC90 [7],IC90 [8],IC90 [9],IC90 [10],IC90 [11],IC90 [12],IC90 [13]
CO[C@H]1CC2=CC(=O)O[C@@H]([C@H](C)[C@@H](OC)C[C@H](OC)/C=C/[C@H](C)[C@@H](O)C[C@@H](OC)/C=C/[C@H](C)[C@@H]([C@@H](C)[C@@H](OC)[C@@H](C)CCC(=O)[C@H](C)[C@@H](C/C=C/N(C)C=O)OC)OC(=O)/C=C/C=C(/C)C1)[C@H]2O [SPHINXOLIDE B],< 2 µg/mL,< 2 µg/mL,< 2 µg/mL,< 2 µg/mL,< 2 µg/mL,< 2 µg/mL,< 2 µg/mL,< 2 µg/mL,< 2 µg/mL,< 2 µg/mL,< 2 µg/mL,< 2 µg/mL,< 2 µg/mL
C/C1=C\[C@H](C)C[C@H](C)OC(=O)[C@H](C(C)C)NC(=O)[C@@H](Cc2ccc(O)c(I)c2)N(C)C(=O)CNC(=O)[C@@H](C)C1 [NEOSIPHONIAMOLIDE A],> 5 µg/mL,> 5 µg/mL,> 5 µg/mL,> 5 µg/mL,> 5 µg/mL,5 µg/mL,> 5 µg/mL,> 5 µg/mL,> 5 µg/mL,> 5 µg/mL,> 5 µg/mL,5 µg/mL,> 5 µg/mL
